Results as given in US11311522B1 (Cavion, Inc., priority 2018, dated 2022).

Test: PN002/Part II: safety and tolerability
Format: in vivo
Source text: Clinical safety was monitored throughout the study by adverse events, clinical laboratory tests, vital signs, ECGs, and ECG telemetry.
The subject was not on telemetry at the time.

CC(C)c1ccc(CC(=O)N[C@H](C)c2ccc(OCC(F)(F)F)cn2)cc1 [CX-8998]
6 (100) n %: At least 1 adverse event (12 mg/d) | At least 1 adverse event (18 mg/d) | Nervous System Disorders (18 mg/d) | Psychiatric Disorders (18 mg/d)
13 (43.3) N (%): Tiredness (any dose)
9 (30.0) N (%): Lightheadedness (any dose)
3 (10.0) N (%): Daydreaming (any dose) | Dizziness (any dose) | Floating feeling (any dose) | Fuzzy head (any dose) | Hyperactivity (any dose) | Intermittent headache (any dose) | Lethargy (any dose) | Somnolence (any dose) | Sore throat (any dose) | Spaced out (any dose) | Vomiting (any dose)
14 (46.7) N (%): Headache (any dose)
20 (66.7) N (%): Nervous System Disorders (any dose)
7 (23.3) N (%): Feeling of relaxation (any dose)
6 (20.0) N (%): Eye Disorders (any dose) | Skin and Subcutaneous Tissue Disorders (any dose)
27 (90.0) N (%): At least 1 adverse event (any dose)
1 (16.7) n %: Application site erythema (12 mg/d) | Application site pruritus (12 mg/d) | Dizziness (12 mg/d) | Eye Disorders (12 mg/d) | Gastrointestinal Disorders (12 mg/d) | Headache (12 mg/d) | Heaviness of head (12 mg/d) | Hyperactivity (12 mg/d) | Intermittent headache (12 mg/d) | Mood altered (12 mg/d) | Musculoskeletal and Connective Tissue Disorders (12 mg/d) | Skin and Subcutaneous Tissue Disorders (12 mg/d) | Sleep difficult (12 mg/d) | Clamminess (18 mg/d) | Disorientation (18 mg/d) | Euphoric mood (18 mg/d) | Fuzzy head (18 mg/d) | Heaviness of head (18 mg/d) | Lethargy (18 mg/d) | Lightheadedness (18 mg/d) | Paraesthesia generalized (18 mg/d) | Respiratory, Thoracic and Mediastinal Disorders (18 mg/d) | Sensation of heaviness (18 mg/d) | Sleep difficult (18 mg/d) | Sleep disturbance (18 mg/d) | Sore throat (18 mg/d) | Syncope (18 mg/d) | Taste change (18 mg/d) | Vomiting (18 mg/d)
15 (50.0) N (%): Psychiatric Disorders (any dose)
5 (15.7) N (%): Drowsiness (any dose)
2 (6.7) N (%): Abnormal physical sensation (any dose) | Abnormal sensation of limbs (any dose) | Anger (any dose) | Application site pruritus (any dose) | Backache (any dose) | Clamminess (any dose) | Disorientation (any dose) | Dyspepsia (any dose) | Feeling drunk (any dose) | Hallucination (any dose) | Heaviness of head (any dose) | Hypoaesthesia mouth (any dose) | Increased state of alertness (any dose) | Mood altered (any dose) | Mood change (any dose) | Paraesthesia generalized (any dose) | Paranoia (any dose) | Sedation (any dose) | Sensation of heaviness (any dose) | Sensation of pressure (any dose) | Sleep difficult (any dose) | Sleep disturbance (any dose) | Syncope (any dose) | Taste change (any dose) | Temporal disorientation (any dose) | Tingling (any dose) | Nasal obstruction (male, human, in vivo, 7 days)
0 n %: Abnormal sensation of limbs (12 mg/d) | Anger (12 mg/d) | Backache (12 mg/d) | Clamminess (12 mg/d) | Daydreaming (12 mg/d) | Disorientation (12 mg/d) | Drowsiness (12 mg/d) | Dyspepsia (12 mg/d) | Euphoric mood (12 mg/d) | Feeling drunk (12 mg/d) | Floating feeling (12 mg/d) | Fuzzy head (12 mg/d) | Hallucination (12 mg/d) | Hypoaesthesia mouth (12 mg/d) | Increased state of alertness (12 mg/d) | Lethargy (12 mg/d) | Lightheadedness (12 mg/d) | Mood change (12 mg/d) | Nausea (12 mg/d) | Paraesthesia generalized (12 mg/d) | Paranoia (12 mg/d) | Respiratory, Thoracic and Mediastinal Disorders (12 mg/d) | Sedation (12 mg/d) | Sensation of heaviness (12 mg/d) | Sensation of pressure (12 mg/d) | Sleep disturbance (12 mg/d) | Somnolence (12 mg/d) | Sore throat (12 mg/d) | Spaced out (12 mg/d) | Syncope (12 mg/d) | Taste change (12 mg/d) | Temporal disorientation (12 mg/d) | Tingling (12 mg/d) | Visual disturbance (12 mg/d) | Vivid dreams (12 mg/d) | Vomiting (12 mg/d) | Application site erythema (18 mg/d) | Application site pruritus (18 mg/d) | Dyspepsia (18 mg/d) | Feeling of relaxation (18 mg/d) | Floating feeling (18 mg/d) | Hyperactivity (18 mg/d) | Increased state of alertness (18 mg/d) | Intermittent headache (18 mg/d) | Mood altered (18 mg/d) | Mood change (18 mg/d) | Sedation (18 mg/d) | Sensation of pressure (18 mg/d) | Somnolence (18 mg/d) | Temporal disorientation (18 mg/d) | Tingling (18 mg/d) | Vivid dreams (18 mg/d)
8 (26.7) N (%): Musculoskeletal and Connective Tissue Disorders (any dose)
4 (13.3) N (%): Application site erythema (any dose) | Euphoric mood (any dose) | Visual disturbance (any dose) | Vivid dreams (any dose)
11 (36.7) N (%): Gastrointestinal Disorders (any dose)
5 (83.3) n %: Tiredness (12 mg/d)
3 (50.0) n %: Skin and Subcutaneous Tissue Disorders (18 mg/d)
2 (33.3) n %: Feeling of relaxation (12 mg/d) | Nervous System Disorders (12 mg/d) | Psychiatric Disorders (12 mg/d) | Abnormal physical sensation (18 mg/d) | Abnormal sensation of limbs (18 mg/d) | Anger (18 mg/d) | Backache (18 mg/d) | Daydreaming (18 mg/d) | Dizziness (18 mg/d) | Drowsiness (18 mg/d) | Eye Disorders (18 mg/d) | Feeling drunk (18 mg/d) | Hallucination (18 mg/d) | Hypoaesthesia mouth (18 mg/d) | Nausea (18 mg/d) | Paranoia (18 mg/d) | Spaced out (18 mg/d) | Tiredness (18 mg/d) | Visual disturbance (18 mg/d)
5 (16.7) N (%): Nausea (any dose) | Respiratory, Thoracic and Mediastinal Disorders (any dose)
4 of the 6 subjects: Subjects discontinuing treatment because of adverse events (18 mg once daily)
4 (66.7) n %: Gastrointestinal Disorders (18 mg/d) | Headache (18 mg/d) | Musculoskeletal and Connective Tissue Disorders (18 mg/d)
